Laboratory results: patent US20260256136A1, “STABILIZATION OF ALDEHYDES AND/OR AN ALCOHOLS” (priority 2022, published 2026)

Assays:
[1] = Accelerated storage test of aldehyde mixture with additive, 10 ppm Cu (Example 2); settings: after 55° C. 14 days without cap; for C16:Acid: before test 1.05, blank 17.72; for Z9-16:Ald: before test 5.09, blank 3.05; for 16:Ald: before test 8.41, blank 6.60; for Z11-16Ald: before test 75.31, blank 54.31
Protocol: The term “accelerated storage test” as used herein refers to a well known protocol for investigating the stability of a particular composition. The protocol is described in for example the memorandum dated 16 Nov. 2012 from The United States Environmental Protection Agency Washington, D.C. 20460 with the subject title “Accelerated Storage Stability and Corrosion Characteristics Study Protocol”. The protocol evaluates product stability at 54° C.±2° C. for 14 days.

[2] = Accelerated storage test of aldehyde mixture with additive, 40 ppm Cu (Example 1); assay type: physicochemical; settings: after 55° C. 14 days without cap; for Z9-16:Ald: before test 4.3, blank 3.066023; for C16:Acid: before test 6.7, blank 18.84135; for 16:Ald: before test 7.5, blank 6.659339; for Z11-16Ald: before test 69.4, blank 54.83784, in % (unit assumed)
Protocol: To a mixture of aldehydes containing; (Z)-9-hexadecenal, (Z)-11-hexadecenal, hexadecanal, (Z)-11-hexadecen-1-ol, (Z)-11-hexadecenoic acid and 40 ppm Cu was added an additive as indicated in table 1 below. The mixture was thoroughly mixed and heated without cap in an oven at 55° C. for 14 days as an accelerated storage test.

[3] = Storage test of aldehyde mixture containing 4-hydroxy-TEMPO with additive (Example 4); assay type: physicochemical; settings: for Heptane / Z11-16:OH / 16:Acid / OH tempo / Z9-16:Ald / 15-1:Ald / 16:Ald / Z11-16:Ald: after 55° C. 14 days without cap; for Heptane: before test 0.04, without additive 0.04; for Z11-16:OH: before test 0.27, without additive 0.06; for 16:Acid: before test 1.05, without additive 6.14; for OH tempo: before test 1.19, without additive 1.11; for Z9-16:Ald: before test 5.09, without additive 3.71; for 15-1:Ald: before test 7.27, without additive 5.83; for 16:Ald: before test 8.41, without additive 6.64; for Z11-16:Ald: before test 75.31, without additive 57.21, in % (unit assumed)
Protocol: To a mixture of aldehydes containing; 4-hydroxy-TEMPO (4-hydroxy-2,2,6,6-tetramethylpiperidin-1-oxyl), (Z)-10-pentenenal, (Z)-9-hexadecenal, (Z)-11-hexadecenal, hexadecanal, (Z)-11-hexadecen-1-ol and (Z)-11-hexadecenoic acid in the composition listed in table 4 below was added up to 1% of an additive in table below. The mixture was thoroughly mixed and heated without cap in an oven at 55° C. for 14 days.

[4] = Storage test of aldehyde mixture containing 4-hydroxy-TEMPO and 10 ppm Copper with additive (Example 3); settings: for Z11-16:OH / Z10-15:Ald / 16:Acid / Z9-16:Ald / 16:Ald / Z11-16:Ald: after 55 C 14 days without cap; for Z11-16:OH: before test 2.16, blank 1.44; for Z10-15:Ald: before test 2.61, blank 2.72; for 16:Acid: before test 3.01, blank 7.94; for Z9-16:Ald: before test 5.33, blank 3.91; for 16:Ald: before test 8.16, blank 6.48; for Z11-16:Ald: before test 74.98, blank 58.18
Protocol: To a mixture of aldehydes containing; 4-hydroxy-TEMPO (4-hydroxy-2,2,6,6-tetramethylpiperidin-1-oxyl), (Z)-10-pentenenal, (Z)-9-hexadecenal, (Z)-11-hexadecenal, hexadecanal, (Z)-11-hexadecen-1-ol (Z)-11-hexadecenoic acid and 10 ppm Copper in the composition listed in table 3 below was added up to 1% of an additive in table below. The mixture was thoroughly mixed and heated without cap in an oven at 55 C for 14 days.

C16:Acid [1]	Z9-16:Ald [1]	16:Ald [1]	Z11-16Ald [1]	Z9-16:Ald [2]	C16:Acid [2]	16:Ald [2]	Z11-16Ald [2]	SMILES	other results
17.70	3.09	6.65	54.82	3.379	17.008	6.914	54.67	Cc1c(C)c2c(c(C)c1O)CCC(C)(CCCC(C)CCCC(C)CCCC(C)C)O2 (racemic) [Tocopherol]	–
12.54	3.23	6.84	57.13	2.255	12.35	4.755	40.03	C1COCCN1 [Morpholine]	–
11.32	3.83	3.81	67.75	3.464	14.55	7.376	61.55	CCCOC(=O)c1cc(O)c(O)c(O)c1 [Propyl Gallate]	–
12.93	3.18	6.65	55.97	2.927	16.74	6.224	51.62	[Na+].[OH-] [Sodium Hydroxide]	–
15.21	3.20	6.81	56.62	3.325	17.1	6.835	52.4909	Cc1cc(-n2nc3ccc(Cl)cc3n2)c(O)c(C(C)(C)C)c1 [Sumisorb]	–
10.34	3.67	7.75	65.65	3.367	16.52	6.913	53.69	CC(C)(C)c1cc(O)ccc1O [TBHQ]	–
16.99	3.12	6.62	54.84	3.135	18.22	6.749	55.81	CC1(C)CC(OC(=O)CCCCCCCCC(=O)OC2CC(C)(C)NC(C)(C)C2)CC(C)(C)N1 [Tinuvin 770]	–
17.66	3.07	6.57	54.01	3.085	19.1541	6.634	54.35	Cc1ccc(O)c(-n2nc3ccccc3n2)c1 [Tinuvin P]	–

Continued, molecule first:

SMILES	C16:Acid [1]	Z9-16:Ald [1]	16:Ald [1]	Z11-16Ald [1]	Z9-16:Ald [2]	C16:Acid [2]	16:Ald [2]	Z11-16Ald [2]	other results
CC1(C)CC(=O)CC(C)(C)N1 [2,2,6,6-tetramethyl-4-piperidone]	–	–	–	–	–	–	–	–	Heptane [3]: 0.04; Z11-16:OH [3]: 0.15; 16:Acid [3]: 4.02; OH tempo [3]: 1.11; Z9-16:Ald [3]: 4.03; 15-1:Ald [3]: 6.27; 16:Ald [3]: 6.95; Z11-16:Ald [3]: 61.06; Z11-16:OH ([4]; 10 ppm Copper): 1.75; Z10-15:Ald ([4]; 10 ppm Copper): 3.14; 16:Acid ([4]; 10 ppm Copper): 5.70; Z9-16:Ald ([4]; 10 ppm Copper): 3.83; 16:Ald ([4]; 10 ppm Copper): 6.41; Z11-16:Ald ([4]; 10 ppm Copper): 59.27
Cn1ccnc1S [2-mercapto-1-methylimidazole]	–	–	–	–	–	–	–	–	suppressing acid formation and/or degradation of the aldehydes [3]: particularly efficient at suppressing acid formation and/or degradation of the aldehydes; Heptane [3]: 0.04; Z11-16:OH [3]: 0.28; 16:Acid [3]: 1.12; OH tempo [3]: 1.12; Z9-16:Ald [3]: 4.88; 15-1:Ald [3]: 6.65; 16:Ald [3]: 8.22; Z11-16:Ald [3]: 73.41; Z11-16:OH ([4]; 10 ppm Copper): 1.92; Z10-15:Ald ([4]; 10 ppm Copper): 2.88; 16:Acid ([4]; 10 ppm Copper): 2.93; Z9-16:Ald ([4]; 10 ppm Copper): 4.83; 16:Ald ([4]; 10 ppm Copper): 7.82; Z11-16:Ald ([4]; 10 ppm Copper): 72.34
Sc1nc2ccccc2[nH]1 [2-mercapto-Benzimidazole]	–	–	–	–	–	–	–	–	Heptane [3]: 0.04; Z11-16:OH [3]: 0.00; 16:Acid [3]: 4.23; OH tempo [3]: 1.05; Z9-16:Ald [3]: 3.43; 15-1:Ald [3]: 6.16; 16:Ald [3]: 6.97; Z11-16:Ald [3]: 59.82; OH tempo [4]: 1.11; suppressing acid formation and degradation of the aldehydes ([4]; 55 C 14 days, 10 ppm Copper): particularly efficient at suppressing acid formation and degradation of the aldehydes; Z11-16:OH ([4]; 10 ppm Copper): 1.87; Z10-15:Ald ([4]; 10 ppm Copper): 3.10; 16:Acid ([4]; 10 ppm Copper): 3.80; Z9-16:Ald ([4]; 10 ppm Copper): 4.70; 16:Ald ([4]; 10 ppm Copper): 7.53; Z11-16:Ald ([4]; 10 ppm Copper): 69.33
SC1=NCCS1 [2-thiazoline-2-thiol]	–	–	–	–	–	–	–	–	suppressing acid formation and/or degradation of the aldehydes [3]: particularly efficient at suppressing acid formation and/or degradation of the aldehydes; Heptane [3]: 0.04; Z11-16:OH [3]: 0.00; 16:Acid [3]: 1.69; OH tempo [3]: 0.83; Z9-16:Ald [3]: 4.64; 15-1:Ald [3]: 6.26; 16:Ald [3]: 8.08; Z11-16:Ald [3]: 68.79; Z11-16:OH ([4]; 10 ppm Copper): 2.18; Z10-15:Ald ([4]; 10 ppm Copper): 2.48; 16:Acid ([4]; 10 ppm Copper): 2.74; Z9-16:Ald ([4]; 10 ppm Copper): 5.06; 16:Ald ([4]; 10 ppm Copper): 8.21; Z11-16:Ald ([4]; 10 ppm Copper): 75.24
Nc1nnc(S)s1 [5-Amino-1,3,4-Thiadiazole-2-thiol]	–	–	–	–	–	–	–	–	suppressing acid formation and/or degradation of the aldehydes [3]: particularly efficient at suppressing acid formation and/or degradation of the aldehydes; Heptane [3]: 0.04; Z11-16:OH [3]: 0.12; 16:Acid [3]: 1.87; OH tempo [3]: 1.12; Z9-16:Ald [3]: 4.46; 15-1:Ald [3]: 6.82; 16:Ald [3]: 7.78; Z11-16:Ald [3]: 69.41; Z11-16:OH ([4]; 10 ppm Copper): 2.11; Z10-15:Ald ([4]; 10 ppm Copper): 2.95; 16:Acid ([4]; 10 ppm Copper): 3.03; Z9-16:Ald ([4]; 10 ppm Copper): 4.92; 16:Ald ([4]; 10 ppm Copper): 7.81; Z11-16:Ald ([4]; 10 ppm Copper): 72.73
COc1ccc(O)c(C(C)(C)C)c1 [BHA]	12.64	3.46	7.33	61.54	3.364	15.55	7.158	59.48	–
Cc1cc(C(C)(C)C)c(O)c(C(C)(C)C)c1 [BHT]	10.43	3.73	7.73	65.80	3.425	16.05	6.958	54.06	–
C[S+](C)[O-] [DMSO]	16.74	3.10	6.68	55.41	3.061	19.17	6.722	55.24	–
CN(C)CCO [Dimethylethanolamine]	17.70	3.09	6.65	54.82	0	11.55	1.242	8.128	–
OCC(O)CO [Glycerol]	16.74	0.00	6.75	55.52	3.115	18.83	6.736	54.86	–
O=S1(=O)CCCC1 [Sulfolane]	16.92	3.08	6.60	54.29	3.077	18.34	6.666	54.91	–
